Test results reported in patent US20080009418A1, “Selective Inhibitors” (Alchemia LTD., priority 2004, published 2008).

How the values were obtained:
[1] = biological target: T1, Human δ-opioid (DOP) (Homo sapiens, UniProt P41143); assay: Radioligand binding, human δ-opioid (DOP) membranes, FlashPlate, [3H]-Bremazocine; details: compound at 10 μM; for A1: inhibition of radioligand binding / A1: inhibition of radioligand binding, human δ-opioid (DOP): [3H]-Bremazocine; for A1: inhibition of radioligand binding: FlashPlate
T1 construct: purchased Perkin Elmer Biosignal
Method in brief: (§1)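 Cloned human receptor membranes were coated onto FlashPlate wells and incubated with radioligand and compound (added from a 0.5 mM DMSO daughter plate) for 1 hour at room temperature in the dark. Scintillation counting gave percent inhibition, with DMSO defining total and reference ligand defining non-specific binding.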

[2] = biological target: T2, Human κ-Opioid (KOP) (Homo sapiens, UniProt P41145); assay: Radioligand binding, human κ-opioid (KOP) membranes, filtration, [3H]-Diprenorphine; details: compound at 10 μM; for A2: inhibition of radioligand binding / A2: inhibition of radioligand binding, human κ-opioid (KOP): [3H]-Diprenorphine; for A2: inhibition of radioligand binding: filtration
T2 construct: purchased Perkin Elmer Biosignal
Method in brief: (§2)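 Membranes from cloned human receptors were incubated with compound and radioligand for 1 hour at room temperature. Bound ligand was collected on 0.3% PEI-soaked filters, washed with cold 50 mM Tris-HCl pH 7.4, and counted by scintillation. Percent inhibition was computed against DMSO totals and reference-ligand nonspecific wells.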

[3] = biological target: T3, Human Melanocortin (MC3) (Homo sapiens, UniProt P41968); assay: Radioligand binding, human melanocortin MC3 membranes, FlashPlate, [125I]-NDP-αMSH; details: compound at 10 μM; for A3: inhibition of radioligand binding / A3: inhibition of radioligand binding, human melanocortin (MC3): [125I]-NDP-αMSH; for A3: inhibition of radioligand binding: FlashPlate
T3 construct: purchased Perkin Elmer Biosignal
Method in brief: as §1

[4] = biological target: T4, Human Melanocortin (MC4) (Homo sapiens, UniProt P32245); assay: Radioligand binding, human melanocortin MC4 membranes, FlashPlate, [125I]-NDP-αMSH; details: compound at 10 μM; for A4: inhibition of radioligand binding / A4: inhibition of radioligand binding, human melanocortin (MC4): [125I]-NDP-αMSH; for A4: inhibition of radioligand binding: FlashPlate
T4 construct: purchased Perkin Elmer Biosignal
Method in brief: as §1

[5] = biological target: T5, Human melanocortin (MC5) (Homo sapiens, UniProt P33032); assay: Radioligand binding, human melanocortin MC5 membranes, FlashPlate, [125I]-NDP-αMSH; details: compound at 10 μM; for A5: inhibition of radioligand binding / A5: inhibition of radioligand binding, human melanocortin (MC5): [125I]-NDP-αMSH; for A5: inhibition of radioligand binding: FlashPlate
T5 construct: purchased Perkin Elmer Biosignal
Method in brief: as §1

[6] = biological target: T6, Human melanin-concentrating hormone (MCH1) (Homo sapiens, UniProt Q99705); assay: Radioligand binding, human melanin-concentrating hormone MCH1 membranes, FlashPlate, [125I]-S36057; details: compound at 10 μM; for A6: inhibition of radioligand binding: [125I]-S36057, FlashPlate; for A6: inhibition of radioligand binding, human melanin-concentrating hormone (MCH1): [125I]-S36057
T6 construct: purchased Perkin Elmer Biosignal
Method in brief: as §1

[7] = biological target: T7, Human μ-opioid (MOP) (Homo sapiens, UniProt P35372); assay: Radioligand binding, human μ-opioid (MOP) membranes, FlashPlate, [3H]-Naloxone; details: compound at 10 μM; for A7: inhibition of radioligand binding / A7: inhibition of radioligand binding, human μ-opioid (MOP): [3H]-Naloxone; for A7: inhibition of radioligand binding: FlashPlate
T7 construct: purchased Perkin Elmer Biosignal
Method in brief: as §1

[8] = biological target: T8, Human neurokinin (NK1) (Homo sapiens, UniProt P25103); assay: Radioligand binding, human neurokinin NK1 membranes, filtration, [125I]-Substance P; details: compound at 10 μM; for A8: inhibition of radioligand binding / A8: inhibition of radioligand binding, human neurokinin (NK1): [125I]-Substance P; for A8: inhibition of radioligand binding: filtration
T8 construct: purchased Perkin Elmer Biosignal
Method in brief: as §2

[9] = biological target: T9, Human neuropeptide Y (NPY-Y1) (Homo sapiens, UniProt P25929); assay: Radioligand binding, human neuropeptide Y NPY-Y1 membranes, FlashPlate, [125I]-PYY; details: compound at 10 μM; for A9: inhibition of radioligand binding / A9: inhibition of radioligand binding, human neuropeptide Y (NPY-Y1): [125I]-PYY; for A9: inhibition of radioligand binding: FlashPlate
T9 construct: purchased Perkin Elmer Biosignal
T9 sequence (P25929 1-384): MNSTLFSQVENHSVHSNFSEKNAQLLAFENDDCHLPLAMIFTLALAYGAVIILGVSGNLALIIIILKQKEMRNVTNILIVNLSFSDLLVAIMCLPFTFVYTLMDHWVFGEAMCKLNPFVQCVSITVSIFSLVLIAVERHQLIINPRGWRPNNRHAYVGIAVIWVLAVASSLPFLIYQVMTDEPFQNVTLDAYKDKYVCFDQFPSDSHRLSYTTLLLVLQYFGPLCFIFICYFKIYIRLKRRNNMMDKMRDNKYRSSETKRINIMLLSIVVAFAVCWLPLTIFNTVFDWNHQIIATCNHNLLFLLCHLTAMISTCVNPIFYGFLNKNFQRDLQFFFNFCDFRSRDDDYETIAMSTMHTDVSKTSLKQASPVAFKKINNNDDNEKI
Method in brief: as §1

[10] = biological target: T10, Human opioid (ORL1) (Homo sapiens, UniProt P41146); assay: Radioligand binding, human opioid ORL1 membranes, FlashPlate, [125I]-Nociceptin; details: compound at 10 μM; for A10: inhibition of radioligand binding / A10: inhibition of radioligand binding, human opioid (ORL1): [125I]-Nociceptin; for A10: inhibition of radioligand binding: FlashPlate; for A10: inhibition of radioligand binding, human opioid (ORL1): 10 µM
T10 construct: purchased Perkin Elmer Biosignal
Method in brief: as §1

[11] = biological target: T11, Mouse urotensin (mUR2) (Mus musculus, UniProt Q8VIH9); assay: Radioligand binding, mouse urotensin mUR2 membranes, FlashPlate, [125I]-Urotensin II; details: compound at 10 μM; for A11: inhibition of radioligand binding / A11: inhibition of radioligand binding, mouse urotensin (mUR2): [125I]-Urotensin II; for A11: inhibition of radioligand binding: FlashPlate
T11 construct: purchased Perkin Elmer Biosignal
T11 sequence (Q8VIH9 1-385): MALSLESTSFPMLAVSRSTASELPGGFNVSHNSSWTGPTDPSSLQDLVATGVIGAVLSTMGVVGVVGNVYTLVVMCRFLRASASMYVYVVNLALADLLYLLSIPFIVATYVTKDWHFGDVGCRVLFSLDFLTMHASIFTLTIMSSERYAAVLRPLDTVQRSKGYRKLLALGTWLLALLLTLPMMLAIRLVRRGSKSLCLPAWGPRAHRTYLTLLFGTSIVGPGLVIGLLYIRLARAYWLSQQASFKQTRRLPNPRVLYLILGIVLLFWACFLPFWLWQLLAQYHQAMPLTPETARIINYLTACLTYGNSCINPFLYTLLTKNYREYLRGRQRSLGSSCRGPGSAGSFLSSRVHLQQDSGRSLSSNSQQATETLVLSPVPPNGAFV
Method in brief: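 Cloned mouse urotensin (mUR2) receptor membranes from Perkin Elmer Biosignal were immobilized in FlashPlate microplates using a proprietary coating. Each well got 19.5 μl buffer, then 0.5 μl of DMSO, reference ligand, or compound. Adding 5 μl of [125I]-Urotensin II, diluted to 5× final concentration in binding buffer, started binding. Plates were sealed with TopSeal-A and incubated 1 hour at room temperature in the dark. Wells were counted for 30 seconds each on a TopCount after a 60-second delay, and percentage inhibition was calculated.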

T5 sequence (P33032 whole entry): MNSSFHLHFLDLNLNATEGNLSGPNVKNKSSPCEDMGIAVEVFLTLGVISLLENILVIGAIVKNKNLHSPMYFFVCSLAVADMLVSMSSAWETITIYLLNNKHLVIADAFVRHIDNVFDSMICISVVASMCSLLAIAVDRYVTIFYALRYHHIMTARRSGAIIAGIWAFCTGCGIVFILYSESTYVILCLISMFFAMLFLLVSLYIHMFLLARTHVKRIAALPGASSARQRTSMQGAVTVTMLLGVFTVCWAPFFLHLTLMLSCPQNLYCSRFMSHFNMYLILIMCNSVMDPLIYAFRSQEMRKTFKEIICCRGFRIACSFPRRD
T8 sequence (P25103 whole entry): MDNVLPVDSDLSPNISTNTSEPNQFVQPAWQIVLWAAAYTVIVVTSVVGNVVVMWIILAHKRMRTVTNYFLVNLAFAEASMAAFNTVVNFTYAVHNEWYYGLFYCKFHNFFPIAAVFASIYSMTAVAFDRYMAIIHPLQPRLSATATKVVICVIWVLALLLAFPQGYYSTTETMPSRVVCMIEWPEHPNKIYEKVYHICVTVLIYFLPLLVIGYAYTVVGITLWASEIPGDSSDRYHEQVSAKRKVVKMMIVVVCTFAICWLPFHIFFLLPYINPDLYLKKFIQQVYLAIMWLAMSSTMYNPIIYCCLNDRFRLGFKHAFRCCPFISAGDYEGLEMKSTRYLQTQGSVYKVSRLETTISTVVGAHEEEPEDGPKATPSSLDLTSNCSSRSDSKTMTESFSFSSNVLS
T4 sequence (P32245 whole entry): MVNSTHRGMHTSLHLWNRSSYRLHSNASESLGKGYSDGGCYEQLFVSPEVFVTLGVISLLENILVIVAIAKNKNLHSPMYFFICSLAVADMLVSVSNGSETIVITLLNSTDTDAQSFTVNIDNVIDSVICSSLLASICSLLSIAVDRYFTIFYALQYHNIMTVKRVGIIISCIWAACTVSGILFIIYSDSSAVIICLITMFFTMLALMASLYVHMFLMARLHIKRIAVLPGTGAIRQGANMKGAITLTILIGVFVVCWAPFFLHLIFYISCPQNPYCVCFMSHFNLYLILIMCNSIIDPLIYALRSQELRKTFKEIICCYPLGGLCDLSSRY
T10 sequence (P41146 whole entry): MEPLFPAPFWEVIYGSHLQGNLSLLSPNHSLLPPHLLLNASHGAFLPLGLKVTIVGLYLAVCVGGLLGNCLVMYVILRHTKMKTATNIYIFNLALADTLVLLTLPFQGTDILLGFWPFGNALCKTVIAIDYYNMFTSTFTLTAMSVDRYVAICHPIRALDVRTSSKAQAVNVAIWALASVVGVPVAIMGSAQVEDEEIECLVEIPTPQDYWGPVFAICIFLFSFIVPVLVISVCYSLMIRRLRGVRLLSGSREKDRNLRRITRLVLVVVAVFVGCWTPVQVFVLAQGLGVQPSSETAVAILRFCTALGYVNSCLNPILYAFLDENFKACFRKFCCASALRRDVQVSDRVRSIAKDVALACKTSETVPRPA
T6 sequence (Q99705 whole entry): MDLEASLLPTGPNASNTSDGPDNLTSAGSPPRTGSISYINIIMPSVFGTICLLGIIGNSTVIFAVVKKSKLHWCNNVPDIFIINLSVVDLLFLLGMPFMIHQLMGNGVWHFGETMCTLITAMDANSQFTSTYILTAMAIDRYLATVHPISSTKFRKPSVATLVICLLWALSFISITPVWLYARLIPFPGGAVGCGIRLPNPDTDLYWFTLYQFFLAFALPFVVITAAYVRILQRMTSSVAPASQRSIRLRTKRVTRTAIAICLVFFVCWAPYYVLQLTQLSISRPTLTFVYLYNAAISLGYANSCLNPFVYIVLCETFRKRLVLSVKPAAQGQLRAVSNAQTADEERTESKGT
T7 sequence (P35372 whole entry): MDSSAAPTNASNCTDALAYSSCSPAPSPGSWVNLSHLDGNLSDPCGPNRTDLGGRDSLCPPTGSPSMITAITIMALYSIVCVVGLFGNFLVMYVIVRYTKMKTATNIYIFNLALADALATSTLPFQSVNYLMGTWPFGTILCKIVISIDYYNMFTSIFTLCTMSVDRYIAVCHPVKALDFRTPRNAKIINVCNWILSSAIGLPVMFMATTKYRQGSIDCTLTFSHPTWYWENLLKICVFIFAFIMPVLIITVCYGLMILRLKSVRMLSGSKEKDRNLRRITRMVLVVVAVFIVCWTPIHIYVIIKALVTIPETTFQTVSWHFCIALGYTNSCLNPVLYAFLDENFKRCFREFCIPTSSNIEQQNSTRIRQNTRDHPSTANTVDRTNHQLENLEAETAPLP
T1 sequence (P41143 whole entry): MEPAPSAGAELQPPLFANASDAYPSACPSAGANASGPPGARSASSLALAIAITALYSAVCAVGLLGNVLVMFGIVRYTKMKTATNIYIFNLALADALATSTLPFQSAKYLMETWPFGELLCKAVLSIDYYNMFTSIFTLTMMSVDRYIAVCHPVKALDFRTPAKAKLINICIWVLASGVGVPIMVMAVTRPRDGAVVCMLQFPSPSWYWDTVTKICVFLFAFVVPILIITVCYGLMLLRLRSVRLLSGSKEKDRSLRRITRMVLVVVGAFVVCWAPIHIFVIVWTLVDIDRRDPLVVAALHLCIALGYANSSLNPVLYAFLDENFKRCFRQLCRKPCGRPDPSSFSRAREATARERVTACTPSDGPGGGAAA
T2 sequence (P41145 whole entry): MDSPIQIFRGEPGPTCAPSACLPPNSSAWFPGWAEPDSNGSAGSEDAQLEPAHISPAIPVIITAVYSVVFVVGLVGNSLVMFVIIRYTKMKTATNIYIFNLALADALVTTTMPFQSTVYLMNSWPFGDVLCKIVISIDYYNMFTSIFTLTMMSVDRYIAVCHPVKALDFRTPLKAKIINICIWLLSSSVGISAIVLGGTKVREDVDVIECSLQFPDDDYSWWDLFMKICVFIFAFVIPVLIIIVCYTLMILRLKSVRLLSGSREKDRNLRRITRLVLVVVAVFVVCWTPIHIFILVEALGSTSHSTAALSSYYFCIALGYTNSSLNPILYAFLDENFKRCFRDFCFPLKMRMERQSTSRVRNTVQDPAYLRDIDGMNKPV
T3 sequence (P41968 whole entry): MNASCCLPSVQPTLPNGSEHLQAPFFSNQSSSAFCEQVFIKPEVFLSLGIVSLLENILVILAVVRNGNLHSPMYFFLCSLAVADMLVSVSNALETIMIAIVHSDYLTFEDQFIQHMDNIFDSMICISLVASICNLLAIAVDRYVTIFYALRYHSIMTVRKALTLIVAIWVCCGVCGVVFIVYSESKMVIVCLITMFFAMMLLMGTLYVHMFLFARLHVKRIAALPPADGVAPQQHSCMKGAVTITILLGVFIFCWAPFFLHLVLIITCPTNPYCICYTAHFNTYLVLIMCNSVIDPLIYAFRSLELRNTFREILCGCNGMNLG

SMILES	A1: inhibition of radioligand binding [1]	A2: inhibition of radioligand binding [2]	A3: inhibition of radioligand binding [3]	A4: inhibition of radioligand binding [4]	A5: inhibition of radioligand binding [5]	A6: inhibition of radioligand binding [6]	A7: inhibition of radioligand binding [7]	A8: inhibition of radioligand binding [8]	A9: inhibition of radioligand binding [9]	A10: inhibition of radioligand binding [10]	A11: inhibition of radioligand binding [11]	A1: inhibition of radioligand binding, human δ-opioid (DOP) [1]	A2: inhibition of radioligand binding, human κ-opioid (KOP) [2]	A3: inhibition of radioligand binding, human melanocortin (MC3) [3]	A6: inhibition of radioligand binding, human melanin-concentrating hormone (MCH1) [6]	A9: inhibition of radioligand binding, human neuropeptide Y (NPY-Y1) [9]	A10: inhibition of radioligand binding, human opioid (ORL1) [10]	A11: inhibition of radioligand binding, mouse urotensin (mUR2) [11]	further results
COCC1OC(OCc2ccccc2)C(NC(=O)CCN)C(OCc2ccc3ccccc3c2)C1O (stereo not shown) [compound 190]	− (“−” indicates less than 50% inhibition at 10 μM)	− (“−” indicates less than 50% inhibition at 10 μM)	− (“−” indicates less than 50% inhibition at 10 μM)	− (“−” indicates less than 50% inhibition at 10 μM)	+ (“+” indicates greater than 50% inhibition at 10 μM)	− (“−” indicates less than 50% inhibition at 10 μM)	− (“−” indicates less than 50% inhibition at 10 μM)	+ (“+” indicates greater than 50% inhibition at 10 μM)	− (“−” indicates less than 50% inhibition at 10 μM)	− (“−” indicates less than 50% inhibition at 10 μM)	− (“−” indicates less than 50% inhibition at 10 μM)								
COCC1OC(OCc2ccc(Cl)cc2)C(NC(=O)CCCNC(=N)N)C(OCc2ccc3ccccc3c2)C1O (stereo not shown) [compound 213]	− (“−” indicates less than 50% inhibition at 10 μM)	+ (“+” indicates greater than 50% inhibition at 10 μM)	− (“−” indicates less than 50% inhibition at 10 μM)	+ (“+” indicates greater than 50% inhibition at 10 μM)	+ (“+” indicates greater than 50% inhibition at 10 μM)	+ (“+” indicates greater than 50% inhibition at 10 μM)	− (“−” indicates less than 50% inhibition at 10 μM)	+ (“+” indicates greater than 50% inhibition at 10 μM)	− (“−” indicates less than 50% inhibition at 10 μM)	+ (“+” indicates greater than 50% inhibition at 10 μM)	− (“−” indicates less than 50% inhibition at 10 μM)								
NCCC(=O)NC1C(OCc2ccc(Cl)cc2)OC(COCc2ccc(Cl)cc2)C(O)C1OCc1ccccc1 (single isomer, unassigned) [compound 488]												− (“−” indicates less than 50% inhibition at 10 μM)	− (“−” indicates less than 50% inhibition at 10 μM)	− (“−” indicates less than 50% inhibition at 10 μM)	− (“−” indicates less than 50% inhibition at 10 μM)	− (“−” indicates less than 50% inhibition at 10 μM)	+ (“+” indicates greater than 50% inhibition at 10 μM)	− (“−” indicates less than 50% inhibition at 10 μM)	A4: inhibition of radioligand binding, human melanocortin (MC4) ([4]; 10 µM): + (“+” indicates greater than 50% inhibition at 10 μM); A5: inhibition of radioligand binding, human melanocortin (MC5) [5]: + (“+” indicates greater than 50% inhibition at 10 μM); A7: inhibition of radioligand binding, human μ-opioid (MOP) ([7]; 10 µM): − (“−” indicates less than 50% inhibition at 10 μM); A8: inhibition of radioligand binding, human neurokinin (NK1) ([8]; 10 µM): + (“+” indicates greater than 50% inhibition at 10 μM)
NCCCC(=O)NC1C(OCc2ccc(Cl)cc2)OC(COCc2ccccc2)C(O)C1OCc1ccccc1 (single isomer, unassigned) [compound 504]												− (“−” indicates less than 50% inhibition at 10 μM)	− (“−” indicates less than 50% inhibition at 10 μM)	− (“−” indicates less than 50% inhibition at 10 μM)	− (“−” indicates less than 50% inhibition at 10 μM)	− (“−” indicates less than 50% inhibition at 10 μM)	+ (“+” indicates greater than 50% inhibition at 10 μM)	− (“−” indicates less than 50% inhibition at 10 μM)	A4: inhibition of radioligand binding, human melanocortin (MC4) [4]: − (“−” indicates less than 50% inhibition at 10 μM); A5: inhibition of radioligand binding, human melanocortin (MC5) ([5]; 10 µM): − (“−” indicates less than 50% inhibition at 10 μM); A7: inhibition of radioligand binding, human μ-opioid (MOP) [7]: − (“−” indicates less than 50% inhibition at 10 μM); A8: inhibition of radioligand binding, human neurokinin (NK1) [8]: + (“+” indicates greater than 50% inhibition at 10 μM)
CO[C@H]1[C@H](O)[C@@H](COCc2ccccc2)OC(OCc2ccc(-c3ccccc3)cc2)[C@@H]1NC(=O)CNC(=N)N (stereo partly shown) [compound 58]																			A1 radioligand binding inhibition ([1]; human δ-opioid (DOP) membranes): − (“−” indicates less than 50% inhibition at 10 μM); A2 radioligand binding inhibition ([2]; human κ-opioid (KOP) membranes): + (“+” indicates greater than 50% inhibition at 10 μM); A3 radioligand binding inhibition ([3]; human melanocortin MC3 membranes): − (“−” indicates less than 50% inhibition at 10 μM); A4 radioligand binding inhibition ([4]; human melanocortin MC4 membranes): + (“+” indicates greater than 50% inhibition at 10 μM); A5 radioligand binding inhibition ([5]; human melanocortin MC5 membranes): + (“+” indicates greater than 50% inhibition at 10 μM); A6 radioligand binding inhibition ([6]; human MCH1 membranes): − (“−” indicates less than 50% inhibition at 10 μM); A7 radioligand binding inhibition ([7]; human μ-opioid (MOP) membranes): + (“+” indicates greater than 50% inhibition at 10 μM); A8 radioligand binding inhibition ([8]; human neurokinin NK1 membranes): + (“+” indicates greater than 50% inhibition at 10 μM); A9 radioligand binding inhibition ([9]; human NPY-Y1 membranes): − (“−” indicates less than 50% inhibition at 10 μM); A10 radioligand binding inhibition ([10]; human ORL1 membranes): − (“−” indicates less than 50% inhibition at 10 μM); A11 radioligand binding inhibition ([11]; mouse urotensin mUR2 membranes): − (“−” indicates less than 50% inhibition at 10 μM)
